Assay [1] concerns methicillin-resistant staphylococcus aureus (MRSA). The experiment in a line: Minimum inhibitory concentration (MIC) test against MRSA. Format: cell-based. As to the method:
(§1) This complex can be easily compared to the cefazolin sodium salt by testing the minimum inhibitory concentration (MIC). Initial tests were performed against a drug resistant gram negative bacterium; carbapenem-resistant enterobacteriaceae (CRE) and a drug resistant gram positive bacterium; methicillin-resistant staphylococcus aureus (MRSA). […] By transforming the cefazolin sodium salt into a silver complex, it changes the antibiotic that CRE and MRSA are resistant to, to a compound that CRE and MRSA are susceptible to. Thus, in several embodiments, the compositions provided for herein lead to a heretofore unseen efficacy against drug-resistant microorganisms.

The test system of assay [2] is carbapenem-resistant enterobacteriaceae (CRE). Description: Minimum inhibitory concentration (MIC) test against CRE. The settings on record: drug resistant gram negative bacterium. Format: cell-based. As to the method: as §1

Where a name gives a salt, the structure may show the parent alone. Read-outs that look alike come from different tables or passages of the source.

The MIC is the least concentration at which growth counts as inhibited. On to cefazolin silver complex, for which the minimum inhibitory concentration (MIC) in assay [1] (drug resistant gram positive bacterium) and in assay [2] was 4 µg/mL throughout.
With `Cc1nnc(SCC2=C(C(=O)O)N3C(=O)[C@@H](NC(=O)Cn4cnnn4)[C@H]3SC2)s1` [cefazolin sodium salt, Cefazolin sodium salt], the MIC is 256 µg/mL in assay [1] (Staphylococcus aureus) and above 256 µg/mL in assay [2] (read-out: MIC).

The values above are taken from US20150150995A1, “CONJUGATED ANTI-MICROBIAL COMPOUNDS AND CONJUGATED ANTI-CANCER COMPOUNDS AND USES THEREOF” (PONO CORPORATION, priority 2012, published 2015).
